Experimental data as given in US6455714B1, “Labeled vitamin D compounds and the use thereof” (A & D BioScience, Inc., priority 1995, dated 2002).
Read-outs that look alike come from different tables or passages of the source.

Legend:
[1] = molecular target: T1, Human Vitamin D-binding Protein (hDBP) (Homo sapiens, UniProt P02774)
T1 sequence (P02774 17-474): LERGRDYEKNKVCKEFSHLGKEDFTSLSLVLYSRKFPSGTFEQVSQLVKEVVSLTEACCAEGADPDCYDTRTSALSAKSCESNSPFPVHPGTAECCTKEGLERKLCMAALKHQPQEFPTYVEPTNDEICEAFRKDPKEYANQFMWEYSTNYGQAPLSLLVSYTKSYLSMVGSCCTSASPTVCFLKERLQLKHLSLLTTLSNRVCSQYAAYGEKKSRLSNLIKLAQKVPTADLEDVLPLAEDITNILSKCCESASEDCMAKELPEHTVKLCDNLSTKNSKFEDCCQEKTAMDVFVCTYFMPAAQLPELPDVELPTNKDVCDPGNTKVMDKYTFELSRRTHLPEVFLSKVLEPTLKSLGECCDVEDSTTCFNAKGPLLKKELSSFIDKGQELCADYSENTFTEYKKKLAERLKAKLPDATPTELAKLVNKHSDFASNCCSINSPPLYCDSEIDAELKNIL
Method: Competitive Radioligand Binding Assays of Aanalogs (C) and (F) with Human Vitamin D-binding Protein (hDBP)
These assays were carried out to determine the viability of these synthetic analogs to serve as substrates for hDBP.

[2] = molecular target: T2, DBP (Homo sapiens, UniProt P02774); test: Checkerboard titration (ELISA) of DBP and compound C to obtain a colorimetric signal; assay type: binding; details: with minimum 6.25 ng DBP; color determined visually
T2 construct: purchased Calbiochem, San Diego, Calif
T2 sequence (P02774 17-474): T1 sequence (P02774 17-474)
Method: The method involves attachment of DBP to an ELISA plate followed by the addition of a known quantity of 25-OH-D3-biotin conjugate (compound C). […] Excess amount of C is washed off, and an excess of avidin is added which gets bound to biotin attached to 25-OH-D3. The plate is then incubated in sequence with anti-avidin antibody, a secondary antibody coupled to horseradish peroxidase (HRP), and ABTS (2,2′-azino-di-(3-ethylbenzthiazoline)sulfonate, the substrate that produces a […] color which may be monitored spectrophotometrically or visually. The intensity (absorbance) of the color is directly proportional to the concentration of compound C. In the first experiment, the optimal concentrations of DBP and compound C to develop color were determined (visually). In this experiment, each sample of DBP was tested against each amount of compound C.
A. Determination of the Optimal Amount of DBP and Compound (C) in a Checkerboard Titration (ELISA) to obtain a Colorimetric Signal
Add different amounts of purified hDBP (From Calbiochem, San Diego, Calif., in 100 mM Na2CO3 buffer, pH 8.4) to wells of an ELISA plate
Block excess sites with BSA (1 mg/ml, 300 μl)
↓ wash with PBS containing 0.05% TWEEN 20
Add different amounts of C in EtOH
Wash with PBS containing 0.05% TWEEN 20 (Biorad, Richmond, Calif.) […]
Color development detected visually or spectrophotometrically.

[3] = molecular target: T2, DBP; test: ELISA to demonstrate that compound C can be competed out with 25-OH-D3; assay type: binding; details: 2 μg 25-OH-D3 added with C (30, 60, 120 ng); triplicate
Method: In the next experiment, it was determined whether it would be possible to displace compound C, bound to DBP (which is attached to an ELISA plate), with a known concentration of 25-OH-D3. In a real sample, one will be measuring the amount of 25-OH-D and not that of compound C.
Procedure: same as before, except either C, or C and 2 μg of 25-OH-D3 were added to each plate. Each concentration (point) was done in triplicate. The blank contained no 25-OH-D3 or C.
Furthermore, the amount of compound C is […] to the concentration of added 25-OH-D3.

Q: With `C=C1CC[C@H](OCCCNC(=O)CCCCCNC(=O)CCCC[C@@H]2SC[C@@H]3NC(=O)N[C@@H]32)C/C1=C/C=C1\CCC[C@]2(C)[C@@H]([C@H](C)CCCC(C)(C)O)CC[C@@H]12` [C, Conjugate of 25-OH-D3-3-Aminopropyl Ether and Biotin-X-NHS] as the compound, how does the “ability to replace 25-OH-D3 for DBP binding” value [1] read?
A: can replace 25-OH-D3 for DBP binding

Q: What about the “times less efficient than 25-OH-D3 in displacing 3H-25-OH-D3 bound to hDBP” value [1] of the same compound?
A: ~11 times

Q: And the “minimum amount required to obtain yellow color” value [2]?
A: 30 ng

Q: Which “displacement of compound C bound to DBP on an ELISA plate (color development)” value [3] does the source give for `C=C1CC[C@H](O)C/C1=C/C=C1\CCC[C@]2(C)[C@@H]([C@H](C)CCCC(C)(C)O)CC[C@@H]12` [Compound 25-OH-D3, 25-hydroxyvitamin D3] here?
A: capable of displacing compound C bound to DBP

Q: How did the “ability to replace 25-OH-D3 for DBP binding” value ([1]; FIG. 1) turn out when “Biotin conjugate of 25-OH-D3-3-aminopropyl-3-(6-amino) hexanoic acid” was run?
A: can replace 25-OH-D3 for DBP binding
